Laboratory results from patent US5696231A, “N-substituted glycine derivatives as enzyme inhibitors” (Corvas International, Inc., priority 1994, dated 1997).

What was measured:
[1] = test system: pooled normal human plasma; assay: Activated partial thromboplastin time (APTT) assay in citrated human plasma; assay type: biochemical
Source text: (§1) FIG. 2 depicts the anticoagulant effect of (D)-camphorsulfonyl aspartyl sarcosine arginine aldehyde measured in citrated human plasma using the activated partial thromboplastin time (APTT) assay, closed circles (1), and prothrombin time (PT) assay, open triangles (D). The control clotting times (0 inhibitor) for the APTT and PT assays in human plasma were 29 seconds and 13 seconds, respectively. The concentration of (D)-camphorsulfonyl aspartyl sarcosine arginine aldehyde which caused a doubling of the control clotting times in the APTT and PT assays were 54 micromolar and 298 micromolar, respectively. The data is the mean of two independent determinations.
(§2) The ex vivo anticoagulant effect of a compound of the present invention, (D)-camphorsulfonyl aspartyl sarcosine arginine aldehyde (Example 56), was determined by measuring the prolongation of the activated partial thromboplastin time (APTT) and prothrombin time (PT) over a broad concentration range of the added inhibitor, using pooled normal human plasma.
(§3) Fresh frozen citrated pooled normal human plasma was obtained from George King Biomedical, Overland Park, Kansa. […]

[2] = test system: pooled normal human plasma; assay: Prothrombin time (PT) assay in citrated human plasma; assay type: biochemical; conditions: control clotting time 13 seconds, mean of two independent determinations
Source text: as §1, §2, §3

CN(CC(=O)N[C@H](C=O)CCCN=C(N)N)C(=O)[C@H](CC(=O)O)NS(=O)(=O)C[C@]12CC[C@H](CC1=O)C2(C)C [(D)-camphorsulfonyl aspartyl sarcosine arginine aldehyde]
concentration which caused a doubling of the control clotting time in the APTT assay ([1]; citrated human plasma, control clotting time 29 seconds, mean of two independent determinations): 54 µM
prolongation of the APTT ([1]; human plasma, broad concentration range of added inhibitor (FIG. 2)): prolonged the APTT in a dose dependent manner
concentration which caused a doubling of the control clotting time in the PT assay [2]: 298 µM
